# Patent US8148388B2, “2,4 (4,6) pyrimidine derivatives” (Janssen Pharmaceutica, N.V., priority 2004, dated 2012)
# Assays:
# Format in all cases: biochemical
# Abl (h) = Abl (h) (Homo sapiens, UniProt P00519); experiment: Abl human kinase assay (glass-fiber filter); details: test concentration of 10^−6M; for inhibition at 1 µM: read-out: C1 score (inhibition of Abl human)
# Method: (§1) In the glass-fiber filter technology the activity of the kinase of interest is measured using an appropriate substrate that is incubated with the aforementioned kinase protein in the presence of (^33P) radiolabeled ATP. (^33P) Phosphorylation of the substrate is subsequently measured as radioactivity bound on a glass fiber-filter.
# (§2) All kinases are pre-diluted to a 10× working concentration prior to addition into the assay. The composition of the dilution buffer for each kinase is detailed below.
# (§3) (specific activity approx. 500 cpm/pmol, concentration as required). The reaction is initiated by the addition of the MgATP mix. After incubation for 40 minutes at room temperature, the reaction is stopped by the addition of 5 μl of a 3% phosphoric acid solution. 10 μl of the reaction is then spotted onto a P30 filtermat and washed three times for 5 minutes in 75 mM phosphoric acid and once in methanol prior to drying and scintillation counting.
# Lyn (h) = Lyn (h) (Homo sapiens, UniProt P07948); experiment: Lyn human kinase assay (glass-fiber filter); details: test concentration of 10^−6M; for inhibition at 1 µM: read-out: C10 score (inhibition of Lyn human)
# Method: as §1, §2
# as §3, with “In a final reaction volume of […] (h) (5-10 mU) is incubated with 50 mM Tris pH 7.5, 0.1 mM EGTA, 0.1 mM Na3VO4, 0.1% O-mercaptoethanol, 0.1 mg/ml poly(Glu, Tyr) 4:1, 10 mM MgAcetate and [γ-^33P-ATP] (specific” for “(specific”, “Filtennat A” for “P30 filtermat”
# Fes (h) = Fes (h) (Homo sapiens, UniProt P07332); experiment: Fes human kinase assay (glass-fiber filter); details: test concentration of 10^−6M; for inhibition at 1 µM: read-out: C4 score (inhibition of Fes human)
# Fes (h), sequence (P07332 whole entry): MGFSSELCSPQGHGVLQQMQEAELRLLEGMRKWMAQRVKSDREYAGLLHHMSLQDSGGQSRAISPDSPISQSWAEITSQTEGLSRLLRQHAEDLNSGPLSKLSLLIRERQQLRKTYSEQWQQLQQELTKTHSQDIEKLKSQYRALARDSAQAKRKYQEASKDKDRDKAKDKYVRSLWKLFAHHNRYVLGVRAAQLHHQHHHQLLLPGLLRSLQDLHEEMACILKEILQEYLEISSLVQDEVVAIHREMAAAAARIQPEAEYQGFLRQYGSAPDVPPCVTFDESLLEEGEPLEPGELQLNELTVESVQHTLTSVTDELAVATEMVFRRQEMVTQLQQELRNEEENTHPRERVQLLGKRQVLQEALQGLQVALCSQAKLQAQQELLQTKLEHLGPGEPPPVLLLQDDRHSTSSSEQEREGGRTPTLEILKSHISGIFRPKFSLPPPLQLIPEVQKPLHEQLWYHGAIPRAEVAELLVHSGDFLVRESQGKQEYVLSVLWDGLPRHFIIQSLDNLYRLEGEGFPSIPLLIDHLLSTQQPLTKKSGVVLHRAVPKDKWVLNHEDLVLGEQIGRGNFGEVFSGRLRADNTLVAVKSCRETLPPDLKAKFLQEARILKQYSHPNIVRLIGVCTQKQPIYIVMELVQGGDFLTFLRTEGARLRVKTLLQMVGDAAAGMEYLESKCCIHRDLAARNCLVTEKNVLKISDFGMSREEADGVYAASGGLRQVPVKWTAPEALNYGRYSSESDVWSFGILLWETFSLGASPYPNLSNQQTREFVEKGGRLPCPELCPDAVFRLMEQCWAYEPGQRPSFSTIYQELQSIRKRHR
# Method: as §1, §2
# as §3, with “In a final reaction volume of 25 μl, Fes (h) (5-10 mU) is incubated with 8 mM MOPS pH 7.0, 0.2 mM EDTA, 0.1 mg/ml poly(Glu, Tyr) 4:1, 10 mM MgAcetate and [γ-^33P-ATP] (specific” for “(specific”, “Filtermat A” for “P30 filtermat”
# cSRC (h) = cSRC (h) (Homo sapiens, UniProt P12931); experiment: cSRC human kinase assay (glass-fiber filter); details: test concentration of 10^−6M
# Method: (§4) The in vitro inhibition of a panel of kinases was assessed using either the glass-fiber filter technology as described by Davies, S. P. et al., Biochem J. […] In the glass-fiber filter technology the activity of the kinase of interest is measured using an appropriate substrate that is incubated with the aforementioned kinase protein in the presence of (^33P) radiolabeled ATP. (^33P) Phosphorylation of the substrate is subsequently measured as radioactivity bound on a glass fiber-filter. All kinases are pre-diluted to a 10× working concentration prior to addition into the assay. The composition of the dilution buffer for each kinase is detailed below. […] The reaction is initiated by the addition of the MgATP mix. […] 10 μl of the reaction is then spotted onto a P30 filtermat and washed three times for 5 minutes in 75 mM phosphoric acid and once in methanol prior to drying and scintillation counting.
# EGFR (h) = EGFR (h) (Homo sapiens, UniProt P00533); experiment: EGFR human kinase assay (glass-fiber filter); details: test concentration of 10^−6M; for inhibition at 1 µM: read-out: C4 score (inhibition of EGFR human)
# EGFR (h), sequence (P00533 25-1210): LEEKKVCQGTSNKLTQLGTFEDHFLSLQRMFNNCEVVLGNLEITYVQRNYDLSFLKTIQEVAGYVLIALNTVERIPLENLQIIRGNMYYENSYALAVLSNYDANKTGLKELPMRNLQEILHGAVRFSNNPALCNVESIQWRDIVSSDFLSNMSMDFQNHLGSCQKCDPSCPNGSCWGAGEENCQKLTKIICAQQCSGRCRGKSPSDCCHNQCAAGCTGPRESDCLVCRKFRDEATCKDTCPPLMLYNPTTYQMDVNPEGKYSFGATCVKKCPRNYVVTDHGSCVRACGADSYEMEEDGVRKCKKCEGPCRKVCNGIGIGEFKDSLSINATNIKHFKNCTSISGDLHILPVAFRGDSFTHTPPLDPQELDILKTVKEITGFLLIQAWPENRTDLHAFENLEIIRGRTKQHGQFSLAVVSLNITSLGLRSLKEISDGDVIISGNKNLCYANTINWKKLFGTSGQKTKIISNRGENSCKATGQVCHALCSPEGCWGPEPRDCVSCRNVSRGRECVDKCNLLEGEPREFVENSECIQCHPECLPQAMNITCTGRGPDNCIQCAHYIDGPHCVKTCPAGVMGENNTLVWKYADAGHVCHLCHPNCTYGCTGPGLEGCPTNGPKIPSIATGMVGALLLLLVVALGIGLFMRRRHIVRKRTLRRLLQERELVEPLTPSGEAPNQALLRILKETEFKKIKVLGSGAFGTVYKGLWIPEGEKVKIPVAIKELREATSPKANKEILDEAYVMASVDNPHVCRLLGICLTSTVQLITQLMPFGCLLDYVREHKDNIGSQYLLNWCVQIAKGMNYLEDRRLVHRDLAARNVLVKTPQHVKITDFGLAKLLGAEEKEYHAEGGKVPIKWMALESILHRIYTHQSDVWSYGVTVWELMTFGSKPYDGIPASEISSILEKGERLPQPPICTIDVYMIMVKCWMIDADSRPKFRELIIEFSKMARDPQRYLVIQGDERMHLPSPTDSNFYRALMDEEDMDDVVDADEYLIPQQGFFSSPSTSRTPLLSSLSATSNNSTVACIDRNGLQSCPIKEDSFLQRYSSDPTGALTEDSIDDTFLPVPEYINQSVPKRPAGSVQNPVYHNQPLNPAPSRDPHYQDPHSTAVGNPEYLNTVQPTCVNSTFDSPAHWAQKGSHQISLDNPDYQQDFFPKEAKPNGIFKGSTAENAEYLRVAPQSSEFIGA
# Method: as §1, §2
# as §3, with “In a final reaction volume of 25 μl, EGFR (h) (5-10 mU) is incubated with 8 mM MOPS pH 7.0, 0.2 mM EDTA, 10 mM MnCl2, 0.1 mg/ml poly(Glu, Tyr) 4:1, 10 mM MgAcetate and [γ-^33P-ATP] (specific” for “(specific”, “Filtermat A” for “P30 filtermat”
# Lck (h) = Lck (h) (Homo sapiens, UniProt P06239); experiment: Lck human kinase assay (glass-fiber filter); details: test concentration of 10^−6M; for inhibition at 1 µM: read-out: C9 score (inhibition of Lck human)
# Lck (h), sequence (P06239 whole entry): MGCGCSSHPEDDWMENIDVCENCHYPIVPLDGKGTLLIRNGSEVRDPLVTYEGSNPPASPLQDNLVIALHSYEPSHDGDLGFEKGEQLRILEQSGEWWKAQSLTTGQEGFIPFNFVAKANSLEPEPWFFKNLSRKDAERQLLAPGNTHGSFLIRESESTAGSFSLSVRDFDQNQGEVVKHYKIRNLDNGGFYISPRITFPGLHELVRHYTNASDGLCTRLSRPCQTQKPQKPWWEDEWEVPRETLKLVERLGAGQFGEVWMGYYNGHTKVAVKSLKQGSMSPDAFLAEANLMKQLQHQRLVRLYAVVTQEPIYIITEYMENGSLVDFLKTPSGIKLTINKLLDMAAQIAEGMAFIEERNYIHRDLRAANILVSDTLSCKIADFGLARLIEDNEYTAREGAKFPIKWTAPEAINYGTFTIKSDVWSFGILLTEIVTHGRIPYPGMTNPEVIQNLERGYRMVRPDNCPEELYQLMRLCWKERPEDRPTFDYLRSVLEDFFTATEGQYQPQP
# Method: as §4, with “below. [table]” for “below.”
# Yes (h) = Yes (h) (Homo sapiens, UniProt P07947); experiment: Yes human kinase assay (glass-fiber filter); details: test concentration of 10^−6M; for inhibition at 1 µM: read-out: C11 score (inhibition of Yes human)
# Yes (h), sequence (P07947 whole entry): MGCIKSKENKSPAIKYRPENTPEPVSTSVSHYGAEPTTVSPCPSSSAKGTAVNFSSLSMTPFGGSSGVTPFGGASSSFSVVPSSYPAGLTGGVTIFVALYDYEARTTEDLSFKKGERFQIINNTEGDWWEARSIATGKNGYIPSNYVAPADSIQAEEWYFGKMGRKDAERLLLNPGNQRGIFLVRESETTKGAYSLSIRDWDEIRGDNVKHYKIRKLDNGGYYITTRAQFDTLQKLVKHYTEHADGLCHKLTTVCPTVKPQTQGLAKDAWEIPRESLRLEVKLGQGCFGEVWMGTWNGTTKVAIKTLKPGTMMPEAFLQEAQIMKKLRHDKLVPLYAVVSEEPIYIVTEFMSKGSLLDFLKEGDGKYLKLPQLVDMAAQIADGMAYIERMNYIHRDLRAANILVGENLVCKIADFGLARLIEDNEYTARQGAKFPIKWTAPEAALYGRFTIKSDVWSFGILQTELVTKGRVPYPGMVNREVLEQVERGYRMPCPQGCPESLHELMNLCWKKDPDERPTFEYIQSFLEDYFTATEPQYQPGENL
# Method: as §1, §2
# as §3, with “In a final reaction volume of 25 μl, Yes (h) (5-10 mU) is incubated with 8 mM MOPS pH 7.0, 0.2 mM EDTA, 0.1 mg/ml poly(Glu, Tyr) 4:1, 10 mM MgAcetate and [γ-^33P-ATP] (specific” for “(specific”, “[…],” for “cpm/pmol,”, “Filtermat A” for “P30 filtermat”
# Fms (h) = Fms (h) (Homo sapiens, UniProt P07333); experiment: Fms human kinase assay (glass-fiber filter); details: test concentration of 10^−6M; read-out: C7 score (inhibition of Fms human)
# Fms (h), sequence (P07333 20-972): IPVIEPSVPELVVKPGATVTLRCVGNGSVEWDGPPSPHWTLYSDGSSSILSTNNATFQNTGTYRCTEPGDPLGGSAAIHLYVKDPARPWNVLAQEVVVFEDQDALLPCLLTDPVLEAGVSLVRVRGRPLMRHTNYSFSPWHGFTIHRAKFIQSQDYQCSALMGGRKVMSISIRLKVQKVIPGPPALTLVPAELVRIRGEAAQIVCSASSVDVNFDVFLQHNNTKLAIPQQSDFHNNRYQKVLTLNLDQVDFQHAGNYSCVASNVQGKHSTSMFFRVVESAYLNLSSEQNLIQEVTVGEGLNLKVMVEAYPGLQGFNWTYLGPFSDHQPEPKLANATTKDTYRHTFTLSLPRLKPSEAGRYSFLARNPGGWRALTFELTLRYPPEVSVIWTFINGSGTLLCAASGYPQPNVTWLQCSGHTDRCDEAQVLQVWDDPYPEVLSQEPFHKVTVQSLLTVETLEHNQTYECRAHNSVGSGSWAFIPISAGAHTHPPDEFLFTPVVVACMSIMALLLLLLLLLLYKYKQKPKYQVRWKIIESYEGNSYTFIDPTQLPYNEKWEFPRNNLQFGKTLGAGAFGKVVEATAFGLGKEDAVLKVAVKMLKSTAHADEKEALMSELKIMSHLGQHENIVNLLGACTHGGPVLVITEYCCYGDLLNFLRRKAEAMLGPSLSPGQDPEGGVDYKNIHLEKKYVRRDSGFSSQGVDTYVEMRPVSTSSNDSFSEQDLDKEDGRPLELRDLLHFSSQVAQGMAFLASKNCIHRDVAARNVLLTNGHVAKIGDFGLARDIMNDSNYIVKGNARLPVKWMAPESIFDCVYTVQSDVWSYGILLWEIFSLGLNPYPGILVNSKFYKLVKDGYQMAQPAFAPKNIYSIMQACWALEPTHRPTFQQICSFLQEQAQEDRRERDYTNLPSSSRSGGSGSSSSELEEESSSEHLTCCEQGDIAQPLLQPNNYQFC
# Method: (§5) The in vitro inhibition of a panel of kinases was assessed using either the glass-fiber filter technology as described by Davies, S. P. et al., Biochem J. (2000), 351; p. 95-105.
# as §1, §2
# as §3, with “In a final reaction volume of 25 μl, Fms (h) (5-10 mU) is incubated with 8 mM MOPS pH 7.0, 0.2 mM EDTA, 250 μM […], 10 mM MgAcetate and [γ-^33P-ATP] (specific” for “(specific”
# Flt3 (h) = Flt3 (h) (Homo sapiens, UniProt P36888); experiment: Flt3 human kinase assay (glass-fiber filter); details: test concentration of 10^−6M; for inhibition at 1 µM: read-out: C6 score (inhibition of Flt3 human)
# Flt3 (h), sequence (P36888 27-993): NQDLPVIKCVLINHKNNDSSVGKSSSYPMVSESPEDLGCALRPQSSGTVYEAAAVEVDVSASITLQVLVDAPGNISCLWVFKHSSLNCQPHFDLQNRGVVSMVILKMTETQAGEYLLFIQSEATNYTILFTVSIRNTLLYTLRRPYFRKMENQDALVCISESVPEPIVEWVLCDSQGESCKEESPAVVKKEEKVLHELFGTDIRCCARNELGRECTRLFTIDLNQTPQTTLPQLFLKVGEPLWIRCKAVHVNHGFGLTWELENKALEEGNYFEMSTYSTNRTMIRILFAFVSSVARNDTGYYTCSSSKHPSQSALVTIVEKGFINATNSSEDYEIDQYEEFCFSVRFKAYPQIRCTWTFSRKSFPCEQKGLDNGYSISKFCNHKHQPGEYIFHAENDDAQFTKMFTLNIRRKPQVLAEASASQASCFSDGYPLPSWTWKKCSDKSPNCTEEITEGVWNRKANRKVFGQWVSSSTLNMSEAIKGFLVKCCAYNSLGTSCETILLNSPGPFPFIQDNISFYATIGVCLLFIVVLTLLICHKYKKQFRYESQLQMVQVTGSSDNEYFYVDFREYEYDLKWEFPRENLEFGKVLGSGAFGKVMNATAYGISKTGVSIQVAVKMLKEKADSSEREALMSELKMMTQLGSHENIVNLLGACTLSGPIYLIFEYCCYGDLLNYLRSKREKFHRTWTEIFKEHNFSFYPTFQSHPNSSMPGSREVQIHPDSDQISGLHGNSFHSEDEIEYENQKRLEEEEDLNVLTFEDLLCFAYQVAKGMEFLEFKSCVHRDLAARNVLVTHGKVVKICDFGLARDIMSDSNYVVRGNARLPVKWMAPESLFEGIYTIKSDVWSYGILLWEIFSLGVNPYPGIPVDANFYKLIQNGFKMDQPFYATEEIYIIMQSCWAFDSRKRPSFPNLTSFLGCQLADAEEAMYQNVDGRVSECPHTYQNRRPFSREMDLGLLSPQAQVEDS
# Method: as §5, §1, §2
# as §3, with “In a final reaction volume of 25 μl, Flt3 (h) (5-10 mU) is incubated with 8 mM MOPS pH 7.0, 0.2 mM EDTA, 50 μM […], 10 mM MgAcetate and [γ-^33P-ATP] (specific” for “(specific”
# GSK3B (h) = GSK3B (h) (Homo sapiens, UniProt P49841); experiment: GSK3β human kinase assay (glass-fiber filter); details: test concentration of 10^−6M
# Method: as §5, §1, §2
# as §3, with “In a final reaction volume of 25 μl, GSK3B (h) (5-10 mU) is incubated with 8 mM MOPS pH 7.0, 0.2 mM EDTA, 20 μM […](p)EDEEE (phospho GS2 peptide), 10 mM MgAcetate and [γ-^33P-ATP] (specific” for “(specific”, “50” for “75”
inhibition at 1 µM (Abl (h)) [%],inhibition at 1 µM (Fms (h)) [%],inhibition at 1 µM (Lyn (h)) [%],inhibition at 1 µM (Fes (h)) [%],inhibition at 1 µM (Flt3 (h)) [%],inhibition at 1 µM (EGFR (h)) [%],inhibition at 1 µM (Lck (h)) [%],inhibition at 1 µM (Yes (h)) [%],Compound,C4 score (inhibition of EGFR human) (EGFR (h)),C9 score (inhibition of Lck human) (Lck (h)),C11 score (inhibition of Yes human) (Yes (h)),further results
–,–,–,–,–,–,–,–,"COc1ccc2cc1OCCCNC(=O)[C@H](CC(C)C)NC(=O)Cc1ccc(Cl)cc1Nc1cc(ncn1)N2 [Compound 12, 6, 2:12,8-dimetheno-7H-13,1,3,5,7,17,20-benzoxahexaazacyclotetracosine-18,21-dione, 25-chloro-1,14,15,16,17,19,20,22-octahydro-11-methoxy-19-(2-methylpropyl)-, (19S)-]",4 (Score 4=>80% inhibition),4 (Score 4=>80% inhibition),4 (Score 4=>80% inhibition),C1 score (inhibition of Abl human) (Abl (h)): 2 (Score 2=30-60% inhibition); C10 score (inhibition of Lyn human) (Lyn (h)): 4 (Score 4=>80% inhibition); C4 score (inhibition of Fes human) (Fes (h)): 2 (Score 2=30-60% inhibition); C3 score (inhibition of cSRC human) (cSRC (h)): 4 (Score 4=>80% inhibition)
10 to 30,30 to 60,30 to 60,10 to 30,30 to 60,10 to 30,10 to 30,10 to 30,"N#Cc1cnc2nc1Nc1cccc(c1)C(=O)NCCCCCOc1cccc(c1)N2 [Compound 18, 21-oxa-2,4,8,15,28-pentaazatetracyclo[20.3.1.1~3,7~.1~9,13~]octacosa-1(26),3,5,7(28),9,11,13(27),22,24-nonaene-6-carbonitrile, 14-oxo-]",–,–,–,–
10 to 30,30 to 60,10 to 30,–,60 to 80,–,30 to 60,10 to 30,"O=C1NCCCCCCOc2cccc(c2)Nc2ccnc(n2)Nc2cccc1c2 [Compound 21, 14-oxa-2,4,8,21,29-pentaazatetracyclo[21.3.1.1~3,7~.1~9,13~]nonacosa-1(27),3,5,7(29),9,11,13(28),23,25-nonaen-22-one]",–,–,–,inhibition at 1 µM (GSK3B (h); read-out: C8 score (inhibition of GSK3β human)): 10 to 30%; inhibition at 1 µM (cSRC (h); read-out: C3 score (inhibition of cSRC human)): 10 to 30%
10 to 30,–,–,10 to 30,30 to 60,–,–,–,"O=C1COc2cccc(c2)Nc2nccc(n2)Nc2cccc(c2)CN1 [Compound 23, 18-oxa-2,4,8,15,25-pentaazatetracyclo[17.3.1.1~3,7~.1~9,13~]pentacosa-1(23),3,5,7(25),9,11,13(24),19,21-nonaen-16-one]",–,–,–,–
–,–,–,–,–,–,–,–,"COc1cc2cc(c1)OCCCCCCOc1ccc(Br)cc1Nc1cc(ncn1)N2 [Compound 40, 1H,7H-6,2: 8,12-dimetheno-13,20,1,3,5,7-benzodioxatetraazacyclodocosine, 23-bromo-14,15,16,17,18,19-hexahydro-10-methoxy-]",4 (Score 4=>80% inhibition),1 (Score 1=10-30% inhibition),4 (Score 4=>80% inhibition),C8 score (inhibition of GSK3β human) (GSK3B (h)): 1 (Score 1=10-30% inhibition); C6 score (inhibition of Flt3 human) (Flt3 (h)): 1 (Score 1=10-30% inhibition)
–,30 to 60,30 to 60,–,30 to 60,30 to 60,10 to 30,10 to 30,"O=C1CCc2cccc(c2)Nc2cc(ncn2)Nc2cccc(c2)CN2CCN1CC2 [Compound 43, 1,8,10,12,14,23-hexaazapentacyclo[21.2.2.1~3,7~.1~9,13~.1~15,19~]triaconta-3,5,7(30),9,11,13(29),15,17,19(28)-nonaen-22-one]",–,–,–,–
